Assay results published in ChEMBL document CHEMBL4507316 (2021).
Activity calls are given as the source filed them. The calls are words filed in the database; no cut-off is given here.

Experiments:
[1] = biological target: Sodium-dependent dopamine transporter (Homo sapiens, UniProt Q01959); test: GPCRScan assay: inhibition of DAT; parameters: radioligand conc. used [nm] 3.6 – 16.0, parental cells stable HEK
[2] = biological target: Heat shock protein beta-1 (Homo sapiens, UniProt P04792); test: Inhibition of HSP27 (Ser82) (Western blot)
[3] = tested on: Tyrosine-protein kinase ABL1 (Homo sapiens), P00519 [M351T]; test: ABL1 M351T ProQinase selectivity panel; conditions: Compound concentration 1.0 uM
[4] = biological target: Activin receptor type-1 (Homo sapiens) (UniProt Q04771); test: ACV-R1 ProQinase selectivity panel; conditions: Compound concentration 1.0 uM
[5] = biological target: 5'-AMP-activated protein kinase catalytic subunit alpha-1 (Homo sapiens) (UniProt Q13131); test: AMPK-alpha1 ProQinase selectivity panel; conditions: Compound concentration 1.0 uM
[6] = biological target: Aurora kinase A (Homo sapiens) (UniProt O14965); test: Aurora-A ProQinase selectivity panel; conditions: Compound concentration 1.0 uM
[7] = biological target: Calcium/calmodulin-dependent protein kinase type II subunit delta (Homo sapiens) (UniProt Q13557); test: CAMK2D ProQinase selectivity panel; conditions: Compound concentration 1.0 uM
[8] = biological target: Serine/threonine-protein kinase MRCK beta (Homo sapiens) (UniProt Q9Y5S2); test: CDC42BPB ProQinase selectivity panel; conditions: Compound concentration 1.0 uM
[9] = biological target: Dual specificity protein kinase CLK3 (Homo sapiens) (UniProt P49761); test: CLK3 ProQinase selectivity panel; conditions: Compound concentration 1.0 uM
[10] = biological target: Death-associated protein kinase 3 (Homo sapiens) (UniProt O43293); test: DAPK3 ProQinase selectivity panel; conditions: Compound concentration 1.0 uM
[11] = biological target: DNA-dependent protein kinase catalytic subunit (Homo sapiens) (UniProt P78527); test: DNA-PK ProQinase selectivity panel; conditions: Compound concentration 1.0 uM
[12] = tested on: Epidermal growth factor receptor (Homo sapiens), P00533 [UNDEFINED MUTATION]; test: EGF-R d752-759 ProQinase selectivity panel; conditions: Compound concentration 1.0 uM
[13] = tested on: Epidermal growth factor receptor (Homo sapiens), P00533 [T790M]; test: EGF-R T790M ProQinase selectivity panel; conditions: Compound concentration 1.0 uM
[14] = tested on: Epidermal growth factor receptor (Homo sapiens), P00533 [L858R,T790M]; test: EGF-R T790M/L858R ProQinase selectivity panel; conditions: Compound concentration 1.0 uM
[15] = biological target: Ephrin type-A receptor 3 (Homo sapiens) (UniProt P29320); test: EPHA3 ProQinase selectivity panel; conditions: Compound concentration 1.0 uM
[16] = biological target: Ephrin type-B receptor 3 (Homo sapiens) (UniProt P54753); test: EPHB3 ProQinase selectivity panel; conditions: Compound concentration 1.0 uM
[17] = biological target: Mitogen-activated protein kinase 1 (Homo sapiens) (UniProt P28482); test: ERK2 ProQinase selectivity panel; conditions: Compound concentration 1.0 uM
[18] = biological target: Focal adhesion kinase 1 (Homo sapiens) (UniProt Q05397); test: FAK ProQinase selectivity panel; conditions: Compound concentration 1.0 uM
[19] = tested on: Fibroblast growth factor receptor 1 (Homo sapiens), P11362 [V561M]; test: FGF-R1 V561M ProQinase selectivity panel; conditions: Compound concentration 1.0 uM
[20] = biological target: Fibroblast growth factor receptor 3 (Homo sapiens) (UniProt P22607); test: FGF-R3 wt ProQinase selectivity panel; conditions: Compound concentration 1.0 uM
[21] = biological target: Receptor-type tyrosine-protein kinase FLT3 (Homo sapiens) (UniProt P36888); test: FLT3 wt ProQinase selectivity panel; conditions: Compound concentration 1.0 uM
[22] = biological target: Beta-adrenergic receptor kinase 1 (Homo sapiens) (UniProt P25098); test: GRK2 ProQinase selectivity panel; conditions: Compound concentration 1.0 uM
[23] = biological target: Leukocyte tyrosine kinase receptor (Homo sapiens) (UniProt P29376); test: LTK ProQinase selectivity panel; conditions: Compound concentration 1.0 uM
[24] = biological target: MAP kinase-activated protein kinase 3 (Homo sapiens) (UniProt Q16644); test: MAPKAPK3 ProQinase selectivity panel; conditions: Compound concentration 1.0 uM
[25] = biological target: MAP/microtubule affinity-regulating kinase 4 (Homo sapiens) (UniProt Q96L34); test: MARK4 ProQinase selectivity panel; conditions: Compound concentration 1.0 uM
[26] = biological target: Dual specificity mitogen-activated protein kinase kinase 1 (Homo sapiens) (UniProt Q02750); test: MEK1 ProQinase selectivity panel; conditions: Compound concentration 1.0 uM
[27] = biological target: Maternal embryonic leucine zipper kinase (Homo sapiens) (UniProt Q14680); test: MELK ProQinase selectivity panel; conditions: Compound concentration 1.0 uM
[28] = tested on: Hepatocyte growth factor receptor (Homo sapiens), P08581 [Y1235D]; test: MET Y1235D ProQinase selectivity panel; conditions: Compound concentration 1.0 uM
[29] = biological target: Mitogen-activated protein kinase kinase kinase 14 (Homo sapiens) (UniProt Q99558); test: NIK ProQinase selectivity panel; conditions: Compound concentration 1.0 uM
[30] = biological target: Serine/threonine-protein kinase NLK (Homo sapiens) (UniProt Q9UBE8); test: NLK ProQinase selectivity panel; conditions: Compound concentration 1.0 uM
[31] = biological target: Protein kinase C iota type (Homo sapiens) (UniProt P41743); test: PKC-iota ProQinase selectivity panel; conditions: Compound concentration 1.0 uM
[32] = biological target: Protein kinase C theta type (Homo sapiens) (UniProt Q04759); test: PKC-theta ProQinase selectivity panel; conditions: Compound concentration 1.0 uM
[33] = biological target: Serine/threonine-protein kinase PLK1 (Homo sapiens) (UniProt P53350); test: PLK1 ProQinase selectivity panel; conditions: Compound concentration 1.0 uM
[34] = biological target: Serine/threonine-protein kinase D2 (Homo sapiens) (UniProt Q9BZL6); test: PRKD2 ProQinase selectivity panel; conditions: Compound concentration 1.0 uM
[35] = biological target: Receptor-interacting serine/threonine-protein kinase 2 (Homo sapiens) (UniProt O43353); test: RIPK2 ProQinase selectivity panel; conditions: Compound concentration 1.0 uM
[36] = biological target: Ribosomal protein S6 kinase alpha-6 (Homo sapiens) (UniProt Q9UK32); test: RPS6KA6 ProQinase selectivity panel; conditions: Compound concentration 1.0 uM
[37] = biological target: Serine/threonine-protein kinase 25 (Homo sapiens) (UniProt O00506); test: STK25 ProQinase selectivity panel; conditions: Compound concentration 1.0 uM
[38] = biological target: Serine/threonine-protein kinase TBK1 (Homo sapiens) (UniProt Q9UHD2); test: TBK1 ProQinase selectivity panel; conditions: Compound concentration 1.0 uM
[39] = biological target: TGF-beta receptor type-1 (Homo sapiens) (UniProt P36897); test: TGFB-R1 ProQinase selectivity panel; conditions: Compound concentration 1.0 uM
[40] = biological target: TGF-beta receptor type-2 (Homo sapiens) (UniProt P37173); test: TGFB-R2 ProQinase selectivity panel; conditions: Compound concentration 1.0 uM
[41] = biological target: Testis-specific serine/threonine-protein kinase 2 (Homo sapiens) (UniProt Q96PF2); test: TSK2 ProQinase selectivity panel; conditions: Compound concentration 1.0 uM
[42] = biological target: Tyrosine-protein kinase TXK (Homo sapiens) (UniProt P42681); test: TXK ProQinase selectivity panel; conditions: Compound concentration 1.0 uM
[43] = biological target: Wee1-like protein kinase (Homo sapiens) (UniProt P30291); test: WEE1 ProQinase selectivity panel; conditions: Compound concentration 1.0 uM
[44] = biological target: Tyrosine-protein kinase Yes (Homo sapiens) (UniProt P07947); test: YES ProQinase selectivity panel; conditions: Compound concentration 1.0 uM
[45] = biological target: 5-hydroxytryptamine receptor 1B (Homo sapiens) (UniProt P28222); conditions: Compound concentration 10.0 uM
[46] = biological target: 5-hydroxytryptamine receptor 5A (Homo sapiens) (UniProt P47898); conditions: Compound concentration 10.0 uM
[47] = biological target: Histamine H1 receptor (Homo sapiens) (UniProt P35367); conditions: Compound concentration 10.0 uM
[48] = biological target: Muscarinic acetylcholine receptor M1 (Homo sapiens) (UniProt P11229); conditions: Compound concentration 10.0 uM
[49] = biological target: 3-phosphoinositide-dependent protein kinase 1 (Homo sapiens) (UniProt O15530); test: PDK1 ProQinase selectivity panel; conditions: Compound concentration 1.0 uM

Sodium-dependent dopamine transporter, sequence (Q01959 whole entry): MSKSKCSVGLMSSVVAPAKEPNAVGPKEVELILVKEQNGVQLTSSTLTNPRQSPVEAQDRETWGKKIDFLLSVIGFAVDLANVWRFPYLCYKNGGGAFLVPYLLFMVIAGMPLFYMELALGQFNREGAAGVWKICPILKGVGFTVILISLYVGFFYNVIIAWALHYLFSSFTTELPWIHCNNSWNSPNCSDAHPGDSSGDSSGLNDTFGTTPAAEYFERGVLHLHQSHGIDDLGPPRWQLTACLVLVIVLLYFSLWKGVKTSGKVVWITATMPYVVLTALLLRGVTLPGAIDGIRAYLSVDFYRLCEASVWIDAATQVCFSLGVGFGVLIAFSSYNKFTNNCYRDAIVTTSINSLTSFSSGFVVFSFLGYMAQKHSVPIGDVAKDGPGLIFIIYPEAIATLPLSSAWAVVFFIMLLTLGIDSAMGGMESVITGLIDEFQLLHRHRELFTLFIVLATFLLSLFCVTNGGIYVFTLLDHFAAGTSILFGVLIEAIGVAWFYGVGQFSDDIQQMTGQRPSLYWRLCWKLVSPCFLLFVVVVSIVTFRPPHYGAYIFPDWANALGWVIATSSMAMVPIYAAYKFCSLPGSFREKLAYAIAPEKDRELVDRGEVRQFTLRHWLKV
Receptor-interacting serine/threonine-protein kinase 2 (Homo sapiens), sequence (O43353 whole entry): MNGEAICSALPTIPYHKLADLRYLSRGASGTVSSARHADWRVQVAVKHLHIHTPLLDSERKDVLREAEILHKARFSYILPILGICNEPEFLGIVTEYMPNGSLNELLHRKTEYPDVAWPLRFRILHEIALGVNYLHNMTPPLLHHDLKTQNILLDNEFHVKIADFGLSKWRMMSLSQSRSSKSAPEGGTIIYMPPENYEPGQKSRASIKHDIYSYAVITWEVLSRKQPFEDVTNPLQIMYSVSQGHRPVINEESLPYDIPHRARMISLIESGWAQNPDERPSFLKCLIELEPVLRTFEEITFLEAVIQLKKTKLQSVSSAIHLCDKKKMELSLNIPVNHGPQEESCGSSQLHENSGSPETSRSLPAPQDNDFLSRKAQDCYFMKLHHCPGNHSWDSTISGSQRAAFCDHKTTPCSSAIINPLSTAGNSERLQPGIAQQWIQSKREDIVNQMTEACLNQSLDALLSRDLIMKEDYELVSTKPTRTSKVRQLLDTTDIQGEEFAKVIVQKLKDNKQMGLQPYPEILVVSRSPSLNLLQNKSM
MAP kinase-activated protein kinase 3 (Homo sapiens), sequence (Q16644 whole entry, looked up): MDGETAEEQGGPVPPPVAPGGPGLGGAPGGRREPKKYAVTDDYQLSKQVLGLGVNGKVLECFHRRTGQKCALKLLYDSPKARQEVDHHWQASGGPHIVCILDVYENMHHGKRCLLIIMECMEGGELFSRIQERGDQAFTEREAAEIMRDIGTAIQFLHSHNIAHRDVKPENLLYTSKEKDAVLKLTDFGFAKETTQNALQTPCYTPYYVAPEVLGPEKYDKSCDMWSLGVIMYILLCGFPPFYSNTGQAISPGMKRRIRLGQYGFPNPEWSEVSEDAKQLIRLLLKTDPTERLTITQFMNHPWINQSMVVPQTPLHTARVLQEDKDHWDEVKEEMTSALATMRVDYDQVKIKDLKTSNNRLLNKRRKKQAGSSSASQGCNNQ
Serine/threonine-protein kinase D2 (Homo sapiens), sequence (Q9BZL6 whole entry): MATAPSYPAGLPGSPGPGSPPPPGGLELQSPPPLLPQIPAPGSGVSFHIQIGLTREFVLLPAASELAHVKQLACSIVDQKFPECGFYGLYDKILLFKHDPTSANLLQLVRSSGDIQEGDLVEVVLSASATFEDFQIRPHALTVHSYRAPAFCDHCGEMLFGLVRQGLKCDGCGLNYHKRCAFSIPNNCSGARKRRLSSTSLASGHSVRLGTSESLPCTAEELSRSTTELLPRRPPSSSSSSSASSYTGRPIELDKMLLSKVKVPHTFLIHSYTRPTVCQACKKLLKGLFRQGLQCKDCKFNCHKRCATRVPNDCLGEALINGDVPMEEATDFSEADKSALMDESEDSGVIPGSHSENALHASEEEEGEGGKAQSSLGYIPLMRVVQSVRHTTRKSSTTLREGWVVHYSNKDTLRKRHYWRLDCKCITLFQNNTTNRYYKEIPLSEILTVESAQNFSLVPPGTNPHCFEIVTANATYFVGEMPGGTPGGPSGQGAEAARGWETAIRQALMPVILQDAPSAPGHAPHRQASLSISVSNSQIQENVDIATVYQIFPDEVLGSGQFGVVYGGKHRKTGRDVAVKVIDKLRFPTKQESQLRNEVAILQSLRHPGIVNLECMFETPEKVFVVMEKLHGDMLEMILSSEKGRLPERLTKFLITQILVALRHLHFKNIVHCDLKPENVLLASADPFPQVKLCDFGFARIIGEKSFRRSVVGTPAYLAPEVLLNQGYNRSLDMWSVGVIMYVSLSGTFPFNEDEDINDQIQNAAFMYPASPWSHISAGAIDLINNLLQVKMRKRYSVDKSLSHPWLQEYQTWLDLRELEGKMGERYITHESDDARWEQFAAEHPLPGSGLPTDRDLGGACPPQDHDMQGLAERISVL
Fibroblast growth factor receptor 1 (Homo sapiens), P11362 [V561M], sequence (P11362 whole entry V561M): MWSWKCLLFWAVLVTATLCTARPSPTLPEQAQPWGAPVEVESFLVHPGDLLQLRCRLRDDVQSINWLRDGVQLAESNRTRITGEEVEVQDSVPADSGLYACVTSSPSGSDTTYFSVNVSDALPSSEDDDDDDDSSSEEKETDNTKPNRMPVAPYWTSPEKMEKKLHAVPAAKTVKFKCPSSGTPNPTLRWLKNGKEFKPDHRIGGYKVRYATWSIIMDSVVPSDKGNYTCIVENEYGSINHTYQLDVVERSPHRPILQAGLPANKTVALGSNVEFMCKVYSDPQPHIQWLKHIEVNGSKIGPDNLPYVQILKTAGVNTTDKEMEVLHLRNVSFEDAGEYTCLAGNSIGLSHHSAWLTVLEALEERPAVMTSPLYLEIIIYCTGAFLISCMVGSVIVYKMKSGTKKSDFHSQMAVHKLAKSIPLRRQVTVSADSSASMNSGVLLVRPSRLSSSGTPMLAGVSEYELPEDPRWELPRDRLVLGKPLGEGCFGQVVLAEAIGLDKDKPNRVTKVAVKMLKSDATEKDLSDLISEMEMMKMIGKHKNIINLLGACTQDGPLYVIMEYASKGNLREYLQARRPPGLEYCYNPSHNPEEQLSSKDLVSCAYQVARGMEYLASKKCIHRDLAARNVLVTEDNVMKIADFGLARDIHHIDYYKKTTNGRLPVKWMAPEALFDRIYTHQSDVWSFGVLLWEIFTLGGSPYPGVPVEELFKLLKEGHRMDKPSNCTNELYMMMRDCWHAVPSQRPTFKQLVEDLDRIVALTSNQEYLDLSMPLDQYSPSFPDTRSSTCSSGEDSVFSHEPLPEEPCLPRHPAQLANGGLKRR
TGF-beta receptor type-1 (Homo sapiens), sequence (P36897 whole entry): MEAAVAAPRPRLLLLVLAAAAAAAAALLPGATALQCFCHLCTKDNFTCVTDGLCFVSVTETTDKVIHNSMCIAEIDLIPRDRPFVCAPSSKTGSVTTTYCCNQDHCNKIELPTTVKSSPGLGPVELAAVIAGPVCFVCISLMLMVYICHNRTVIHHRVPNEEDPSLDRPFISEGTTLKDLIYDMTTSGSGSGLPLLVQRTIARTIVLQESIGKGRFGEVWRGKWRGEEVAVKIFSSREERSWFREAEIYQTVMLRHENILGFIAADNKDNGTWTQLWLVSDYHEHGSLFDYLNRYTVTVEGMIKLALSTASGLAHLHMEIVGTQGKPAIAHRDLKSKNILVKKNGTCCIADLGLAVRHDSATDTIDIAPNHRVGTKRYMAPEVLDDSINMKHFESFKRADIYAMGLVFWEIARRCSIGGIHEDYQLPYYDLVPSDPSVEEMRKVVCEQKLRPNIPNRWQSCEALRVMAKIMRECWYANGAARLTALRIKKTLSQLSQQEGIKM
Serine/threonine-protein kinase 25 (Homo sapiens), sequence (O00506 whole entry, looked up): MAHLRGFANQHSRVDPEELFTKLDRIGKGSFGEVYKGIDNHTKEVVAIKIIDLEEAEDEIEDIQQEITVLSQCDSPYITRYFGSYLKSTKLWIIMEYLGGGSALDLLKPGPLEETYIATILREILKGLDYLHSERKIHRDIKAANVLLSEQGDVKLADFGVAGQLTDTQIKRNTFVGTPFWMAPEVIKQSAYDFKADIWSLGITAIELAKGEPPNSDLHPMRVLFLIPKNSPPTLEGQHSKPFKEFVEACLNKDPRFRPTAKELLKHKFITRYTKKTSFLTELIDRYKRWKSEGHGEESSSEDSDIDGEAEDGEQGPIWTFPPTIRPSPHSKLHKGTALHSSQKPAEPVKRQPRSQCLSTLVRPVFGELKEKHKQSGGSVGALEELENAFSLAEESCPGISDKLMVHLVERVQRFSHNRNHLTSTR
Beta-adrenergic receptor kinase 1 (Homo sapiens), sequence (P25098 whole entry): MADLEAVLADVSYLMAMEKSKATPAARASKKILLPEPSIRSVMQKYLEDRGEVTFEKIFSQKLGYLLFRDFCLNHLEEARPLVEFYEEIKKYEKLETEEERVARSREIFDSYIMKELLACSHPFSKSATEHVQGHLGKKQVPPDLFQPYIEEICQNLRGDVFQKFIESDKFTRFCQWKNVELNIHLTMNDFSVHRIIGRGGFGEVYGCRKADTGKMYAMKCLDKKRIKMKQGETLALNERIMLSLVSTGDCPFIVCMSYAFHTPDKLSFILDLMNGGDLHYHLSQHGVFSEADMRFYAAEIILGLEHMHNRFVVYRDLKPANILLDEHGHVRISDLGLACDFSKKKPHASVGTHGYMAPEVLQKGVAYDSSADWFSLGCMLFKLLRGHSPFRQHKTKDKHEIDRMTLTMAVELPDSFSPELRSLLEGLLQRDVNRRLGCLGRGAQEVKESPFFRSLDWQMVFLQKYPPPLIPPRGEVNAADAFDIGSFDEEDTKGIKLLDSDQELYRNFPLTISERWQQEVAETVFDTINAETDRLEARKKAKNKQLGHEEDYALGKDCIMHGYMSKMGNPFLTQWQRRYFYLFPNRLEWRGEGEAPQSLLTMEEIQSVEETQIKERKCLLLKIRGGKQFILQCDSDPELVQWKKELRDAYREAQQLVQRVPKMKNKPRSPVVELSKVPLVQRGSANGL

- Ki [1]: > 10 µM
- pKi [1]: < 5
- IC50 [2]: 0.025 µM (active)
- % Residual activity with Skepinone-L [3]: 102%
- % Residual activity with Skepinone-L [4]: 94%
- % Residual activity with Skepinone-L [5]: 84%
- % Residual activity with Skepinone-L [6]: 99%
- % Residual activity with Skepinone-L [7]: 43%
- % Residual activity with Skepinone-L [8]: 83%
- % Residual activity with Skepinone-L [9]: 88%
- % Residual activity with Skepinone-L [11]: 82%
- % Residual activity with Skepinone-L [12]: 83%
- % Residual activity with Skepinone-L [13]: 119%
- % Residual activity with Skepinone-L [14]: 93%
- % Residual activity with Skepinone-L [15]: 107%
- % Residual activity with Skepinone-L [16]: 108%
- % Residual activity with Skepinone-L [17]: 83%
- % Residual activity with Skepinone-L [18]: 113%
- % Residual activity with Skepinone-L [19]: 89%
- % Residual activity with Skepinone-L [20]: 102%
- % Residual activity with Skepinone-L [21]: 106%
- % Residual activity with Skepinone-L [22]: 83%
- % Residual activity with Skepinone-L [23]: 97%
- % Residual activity with Skepinone-L [24]: 95%
- % Residual activity with Skepinone-L [25]: 96%
- % Residual activity with Skepinone-L [26]: 79%
- % Residual activity with Skepinone-L [27]: 81%
- % Residual activity with Skepinone-L [28]: 114%
- % Residual activity with Skepinone-L [29]: 96%
- % Residual activity with Skepinone-L [30]: 87%
- % Residual activity with Skepinone-L [31]: 91%
- % Residual activity with Skepinone-L [32]: 99%
- % Residual activity with Skepinone-L [33]: 97%
- % Residual activity with Skepinone-L [34]: 85%
- % Residual activity with Skepinone-L [35]: 77%
- % Residual activity with Skepinone-L [36]: 85%
- % Residual activity with Skepinone-L [37]: 100%
- % Residual activity with Skepinone-L [38]: 87%
- % Residual activity with Skepinone-L [39]: 93%
- % Residual activity with Skepinone-L [40]: 77%
- % Residual activity with Skepinone-L [41]: 82%
- % Residual activity with Skepinone-L [42]: 93%
- % Residual activity with Skepinone-L [43]: 88%
- % Residual activity with Skepinone-L [44]: 119%
- inhibition [45]: 15.2%
- inhibition [46]: 13.8%
- inhibition [47]: 12.7%
- inhibition [48]: 45.5%
- % Residual activity with Skepinone-L [49]: 97%
SMILES: O=C1c2ccc(Nc3ccc(F)cc3F)cc2CCc2ccc(OC[C@H](O)CO)cc21 [Skepinone-L]
- % Residual activity with Skepinone-L [10]: 89%
